According to patent US20240116946A1 (Gilead Sciences, Inc., priority 2022, published 2024):
Like-named read-outs stand apart in the source and are kept apart here.

Assays:
[1] = target: recombinant SARS-CoV-2 Main protease (Mpro) (Severe acute respiratory syndrome coronavirus 2 (2019-nCoV) (SARS-CoV-2), UniProt P0DTD1); assay: Cov Mpro Biochemical IC50 Assay; settings: read-out: MPro IC50
[2] = tested on: SARS-CoV-2-NLuc; assay: microbe, parasite or virus in culture; assay type: cell-based, SARS Coronavirus 2
[3] = recombinant SARS-CoV-2 Mpro 7.5 nM, fluorogenic peptide substrate 40 μM
[4] = Severe acute respiratory syndrome coronavirus, 48 h, read-out: MPro EC50
[5] = recombinant SARS-CoV-2 Mpro, fluorogenic peptide substrate
[6] = Severe acute respiratory syndrome coronavirus, 48 h; read-out: MPro EC50

COc1cccc(C#N)c1-c1cc2c(s1)c(=O)n(-c1cncc3cnn(C)c13)c(=O)n2CCC#N [Example 838, 2-(1-(2-cyanoethyl)-3-(1-methyl-1H-pyrazolo[4,3-c]pyridin-7-yl)-2,4-dioxo-1,2,3,4-tetrahydrothieno[3,2-d]pyrimidin-6-yl)-3-methoxybenzonitrile]
IC50 [1, 3]: 0.0325 µM | EC50 [2, 4]: 0.115 µM

COc1cc(-c2cc3[nH]c(=O)n(-c4cncc5nc(C(F)(F)F)sc45)c(=O)c3s2)c(Cl)cc1F [Example 488]
IC50 [1, 3]: 1.02 µM | EC50 [2, 4]: 0.618 µM

COc1ccc2cncc(-n3c(=O)[nH]c4cc(-c5c(Cl)cccc5C5=CCOCC5)sc4c3=O)c2c1 [Example 563]
IC50 [1, 3]: 0.00696 µM | EC50 [2, 4]: 0.01 µM

Cc1cncc(-c2cccc(Cl)c2-c2ccc3c(=O)n(-c4cncc5ccccc45)c(=O)[nH]c3c2)c1 [Example 198]
IC50 [1, 5]: 0.00877 µM | EC50 [2, 4]: 0.00847 µM

Cc1cc(-c2cc3c(s2)c(=O)n(-c2cncc4cnn(C)c24)c(=O)n3CCC#N)c(C#N)cc1F [Example 779]
IC50 [1, 3]: 0.0241 µM | EC50 [2, 4]: 0.0673 µM

Cc1c2c(-n3c(=O)c4sc(-c5ccc(F)cc5Cl)cc4n(CCC#N)c3=O)cncc2nn1C (single isomer, unassigned) [Example 972, 3-(6-(2-chloro-4-fluorophenyl)-3-(2,3-dimethyl-2H-pyrazolo[3,4-c]pyridin-4-yl)-2,4-dioxo-3,4-dihydrothieno[3,2-d]pyrimidin-1(2H)-yl)propanenitrile]
IC50 [1, 3]: > 1 µM | EC50 ([2]; read-out: MPro EC50): > 1 µM

O=c1[nH]c2cc(-c3c(Cl)cccc3CO)sc2c(=O)n1-c1cncc2ccccc12 [Example 235]
IC50 [1, 5]: 0.0535 µM | EC50 [2, 6]: 0.289 µM

Cn1cnc(COc2ccc(Cl)c(-c3ccc4c(=O)n(-c5cncc6ccccc56)c(=O)[nH]c4c3)c2)n1 [Example 90]
IC50 [1, 5]: 0.487 µM | EC50 [2, 4]: 0.886 µM

COc1ccc(C#N)c(-c2cc3[nH]c(=O)n(-c4cncc5ccc(OC)cc45)c(=O)c3cc2F)c1 [Example 429]
IC50 [1, 3]: 0.00283 µM | EC50 [2, 4]: 0.0112 µM

COc1cc(-c2cc3c(s2)c(=O)n(-c2cncc4nn(C)c(C)c24)c(=O)n3CCC#N)c(Cl)cc1F (single isomer, unassigned) [Example 1041, 3-(6-(2-chloro-4-fluoro-5-methoxyphenyl)-3-(2,3-dimethyl-2H-pyrazolo[3,4-c]pyridin-4-yl)-2,4-dioxo-3,4-dihydrothieno[3,2-d]pyrimidin-1(2H)-yl)propanenitrile]
IC50 [1, 3]: 0.00299 µM | EC50 ([2]; read-out: MPro EC50): 0.00572 µM

COc1cc(-c2cc3c(s2)c(=O)n(-c2cncc4cnn(C)c24)c(=O)n3CC(C)(C)C#N)c(Cl)cc1F [Example 697]
IC50 [1, 3]: 0.00901 µM | EC50 [2, 4]: 0.00962 µM

CCn1c(C)nc2cncc(-n3c(=O)c4sc(-c5cc(OC)c(F)cc5Cl)cc4n(CCC#N)c3=O)c21 [Example 940]
IC50 [1, 3]: 0.00528 µM | EC50 [2, 4]: 0.0236 µM

COc1cc(-c2cc3c(s2)c(=O)n(-c2cncc4c2CCCC4)c(=O)n3CCC#N)c(Cl)cc1F [Example 908]
IC50 [1, 3]: 0.00752 µM | EC50 [2, 4]: 0.00684 µM

COc1cc(-c2cc3c(s2)c(=O)n(-c2cnnc(C)c2)c(=O)n3CCC#N)c(Cl)cc1F [Example 988]
IC50 [1, 3]: 0.0634 µM | EC50 [2, 4]: 0.259 µM

COc1cc(-c2cc3c(s2)c(=O)n(-c2cncc4ccccc24)c(=O)n3CC2(C#N)CC2)c(Cl)cc1F [Example 631, 1-[[6-(2-chloro-4-fluoro-5-methoxy-phenyl)-3-(4-isoquinolyl)-2,4-dioxo-thieno[3,2-d]pyrimidin-1-yl]methyl]cyclopropanecarbonitrile]
IC50 [1, 3]: 0.0126 µM | EC50 [2, 6]: 0.00496 µM

COc1cc(-c2cc3[nH]c(=O)n(-c4cncc5cnn(C)c45)c(=O)c3s2)c(Cl)cc1F (single isomer, unassigned) [Example 639, 6-(2-chloro-4-fluoro-5-methoxy-phenyl)-3-(1-methylpyrazolo[4,3-c]pyridin-7-yl)-1H-thieno[3,2-d]pyrimidine-2,4-dione]
IC50 [1, 3]: 0.114 µM | EC50 ([2]; read-out: MPro EC50): 0.173 µM

COc1cc(Cl)c(-c2cc3c(s2)c(=O)n(-c2cncc4cnn(C)c24)c(=O)n3CCC#N)cc1Cl [Example 791]
IC50 [1, 3]: 0.00698 µM | EC50 [2, 4]: 0.00904 µM

Cc1ccc2cncc(-n3c(=O)[nH]c4cc(-c5ccccc5Cl)sc4c3=O)c2n1 [Example 453, 6-(2-chlorophenyl)-3-(2-methyl-1,6-naphthyridin-8-yl)thieno[3,2-d]pyrimidine-2,4(1H,3H)-dione]
IC50 [1, 3]: 0.00383 µM | EC50 [2, 4]: 0.0221 µM

COc1cccc(Cl)c1-c1ccc2c(=O)n(-c3cncc4ccccc34)c(=O)[nH]c2c1 [Example 58]
IC50 [1, 5]: 0.158 µM | EC50 [2, 4]: 0.164 µM

COc1cc(-c2cc3c(s2)c(=O)n(-c2cnccc2C)c(=O)n3CCC#N)c(Cl)cc1F (single isomer, unassigned) [Example 1030, 3-[6-(2-chloro-4-fluoro-5-methoxy-phenyl)-3-(4-methyl-3-pyridyl)-2,4-dioxo-thieno[3,2-d]pyrimidin-1-yl]propanenitrile]
IC50 [1, 3]: 0.0045 µM | EC50 ([2]; read-out: MPro EC50): 0.00972 µM

COc1ccc(-c2cc3[nH]c(=O)n(-c4cncc5ccccc45)c(=O)c3s2)c(C#N)c1 [Example 539]
IC50 [1, 3]: 0.141 µM | EC50 [2, 4]: 0.675 µM

COc1ccc(C#N)c(-c2cc3c(cc2F)c(=O)n(-c2cncc4ccccc24)c(=O)n3CCC#N)c1 [Example 902]
IC50 [1, 3]: 0.0873 µM | EC50 [2, 4]: 0.134 µM

N#Cc1cccc(-c2cccc(Cl)c2-c2ccc3c(=O)n(-c4cncc5ccccc45)c(=O)[nH]c3c2)c1 [Example 184]
IC50 [1, 5]: 0.0925 µM | EC50 [2, 4]: 0.04 µM

COc1cc(-c2cc3c(s2)c(=O)n(-c2cncc4cnn(C)c24)c(=O)n3CC#N)c(C#N)cc1F [Example 693]
IC50 [1, 3]: 0.00256 µM | EC50 [2, 4]: 0.0943 µM

COc1ccc(Cl)c(-c2cc3[nH]c(=O)n(-c4cncc5ccn(C)c45)c(=O)c3s2)c1 [Example 455]
IC50 [1, 3]: 0.00726 µM | EC50 [2, 4]: 0.00702 µM

COc1ccc(Cl)c(-c2cc3[nH]c(=O)n(-c4cncc5cccnc45)c(=O)c3s2)c1 (single isomer, unassigned) [Example 467, 6-(2-chloro-5-methoxyphenyl)-3-(1,6-naphthyridin-8-yl)thieno[3,2-d]pyrimidine-2,4(1H,3H)-dione]
IC50 [1, 3]: 0.0114 µM | EC50 ([2]; read-out: MPro EC50): 0.0381 µM

O=c1[nH]c2cc(-c3ccccc3Cl)sc2c(=O)n1-c1cncc2cccnc12 [Example 133, 6-(2-chlorophenyl)-3-(1,6-naphthyridin-8-yl)thieno[3,2-d]pyrimidine-2,4(1H,3H)-dione]
IC50 [1, 5]: 0.0128 µM | EC50 [2, 4]: 0.0277 µM

COc1cc(-c2sc3c(=O)n(-c4cncc5ccccc45)c(=O)[nH]c3c2C)c(Cl)cc1F [Example 1016]
IC50 [1, 3]: 0.357 µM | EC50 [2, 6]: > 1 µM

COc1cc(-c2cc3c(s2)c(=O)n(-c2cncc4nc(C5CCC5)n(C)c24)c(=O)n3CCC#N)c(Cl)cc1F [Example 755]
IC50 [1, 3]: 0.0333 µM | EC50 [2, 4]: 0.243 µM

COc1cc(-c2cc3c(s2)c(=O)n(-c2cncc4ncccc24)c(=O)n3CCC#N)c(Cl)cc1F [Example 915]
IC50 [1, 3]: 0.0089 µM | EC50 [2, 4]: 0.0194 µM

COc1cc(-c2cc3[nH]c(=O)n(-c4cncc5ccccc45)c(=O)c3s2)c(Cl)cc1C [Example 341]
IC50 [1, 5]: 0.00544 µM | EC50 [2, 4]: 0.00462 µM

Cn1cc2cc(-c3cccc(Cl)c3-c3ccc4c(=O)n(-c5cncc6ccccc56)c(=O)[nH]c4c3)ccc2n1 [Example 247]
IC50 [1, 5]: 0.063 µM | EC50 [2, 4]: 0.0304 µM

COc1ccc(Cl)c(-c2ccc3c(=O)n(-c4cncc5ccc(N6CCOCC6)cc45)c(=O)[nH]c3c2)c1 [Example 430]
IC50 [1, 3]: 0.0118 µM | EC50 [2, 6]: 0.0185 µM

Cn1cc(-c2cccc(Cl)c2-c2cc3[nH]c(=O)n(-c4cncc5ccccc45)c(=O)c3s2)c(C(F)(F)F)n1 (single isomer, unassigned) [Example 448, 6-(2-chloro-6-(1-methyl-3-(trifluoromethyl)-1H-pyrazol-4-yl)phenyl)-3-(isoquinolin-4-yl)thieno[3,2-d]pyrimidine-2,4(1H,3H)-dione]
IC50 [1, 3]: 0.383 µM | EC50 ([2]; read-out: MPro EC50): 0.382 µM

Cc1cc(-c2cccc(Cl)c2-c2cc3[nH]c(=O)n(-c4cncc(C5CC5)c4)c(=O)c3s2)cn2ncnc12 [Example 618]
IC50 [1, 3]: 0.00656 µM | EC50 [2, 4]: 0.016 µM

N#Cc1ccc(Cl)cc1-c1cc2[nH]c(=O)n(-c3cncc4ccccc34)c(=O)c2s1 [Example 685]
IC50 [1, 3]: 0.012 µM | EC50 [2, 4]: 0.0692 µM

COc1ccc(Cl)c(-c2ccc3c(=O)n(-c4cncc5ccc(N6CCC(F)(F)C6)cc45)c(=O)[nH]c3c2)c1 [Example 407]
IC50 [1, 3]: 0.0797 µM | EC50 [2, 4]: 0.184 µM

Cc1cc(-c2cc3c(s2)c(=O)n(-c2cncc4ccccc24)c(=O)n3CCC#N)c(C#N)cc1F [Example 823]
IC50 [1, 3]: 0.0163 µM | EC50 [2, 4]: 0.0257 µM

COc1cc(-c2nc3c(s2)c(=O)n(-c2cncc4ccccc24)c(=O)n3CCC#N)c(Cl)cc1F [Example 903]
IC50 [1, 3]: 0.00852 µM | EC50 [2, 4]: 0.0131 µM
